The subject of data set [1] is renal tubular cells (IMCD3). The data set is described as follows: PGE2 in conditioned media of renal tubular cells. The format is cell-based, mouse.
Description: Mouse intermedullary collecting duct (IMCD3) cells were obtained from ATCC. […] Cells were transfected with siRNA targeting mouse PGC1, HCAR2 or a negative control siRNA (Qiagen) for 24 h. Niacin, mepenzolate bromide, β-hydroxybutyrate, the NAMPT inhibitor FK866 ([…] et al. Cancer research 2003; 63, 7436-7442), and niacinamide were diluted to the indicated concentrations in serum-free cell culture medium. Prostaglandin E2 (PGE2) was measured in the conditioned media 24-72 hours after treatment.
The test system of data set [2] is iNephPGC1α mice. The data set is described as follows: Renal IRI in iNephPGC1α mice with inhibition of β-OHB signaling or prostaglandin synthesis. The note with it: 10 mg/kg IP one hour prior to IRI. The format is in vivo, mouse. On the procedure: (§1) Renal ischemia-reperfusion injury (IRI) was performed on 8-12 week-old males through two small paramedial dorsal incisions by applying a microvascular clamp to each renal pedicle for 20 minutes. Mice were anesthetized with isoflurane for the duration of surgery and warmed to 37° C. using a servo-controlled heating pad. Incisions were closed in two layers and mice were revived with 1 ml warm saline injected intraperitoneally.
(§2) All chemicals were purchased from Sigma-Aldrich unless otherwise noted. Niacinamide was given by intraperitoneal injection of 400 mg/kg/day×4 days in saline, with the final dose an hour prior to IRI surgery. In rescue experiments, the same dose was administered once 18 hours after reperfusion. Indomethacin was given by intraperitoneal injection of 10 mg/kg in 0.1 M sodium carbonate/saline an hour prior to IRI. […]
(§3) All measurements were performed in a blinded fashion by an independent facility. Creatinine was analyzed by LC/MS-MS at the University of Alabama Birmingham O'Brien Core Center for Acute Kidney Injury Research (NIH P30-DK079337). […]

Data set [3] deals with explanted kidneys. Description: NAD in explanted kidneys stored in UW Belzer preservation solution. The note with it: 5 μM P7C3 in ice-cold UW Belzer solution, 16 hours, vs UW Belzer alone. Set-up: species or system mouse. The procedure:
(§4) A, To mimic donor organ harvest, deeply anesthetized mice were flushed intravascularly with ice-cold UW Belzer solution, then placed into ice cold solutions of UW-Belzer with or without 5 μM of P7C3, NAMPT agonist. After 16 hours for the explanted kidneys, organs were analyzed for levels of NAD (pg/μg of protein). B, To mimic donor organ harvest, deeply anesthetized mice were flushed intravascularly with ice-cold UW Belzer solution, then placed into ice cold solutions of UW-Belzer with or without 500 μM, 1 mM or 10 mM Nam. After 3 hours for the explanted hearts, organs were analyzed for levels of NAD (pg/μg of protein). C, NAMPT is the rate-limiting enzyme for the conversion of Nam to NAD via the intermediate NMN (nicotinamide mononucleotide).
(§5) To further expand upon the results from the retrospective cohort of patient study, the conditions of donor organ harvest were mimicked using mice in hopes of improving post-implantation graft performance (FIG. 23). In this experiment, kidney and heart were harvested and Nam or P7C3, a NAMPT agonist, were added to the preservation solution. Upon incubation of kidney with P7C3 in the preservation solution, NAD levels increased as compared to kidney incubated with the UW Belzer solution alone (FIG. 23A). […]

In data set [4] the test system is NNMT in cultured renal tubular cells (IMCD3). Conditions: 24 hr exposure to 1-Me-Nam.
Description: LC-MS assays were developed for multiplex quantification of Nam, NAD, and β-hydroxybutyrate (β-OHB) from cellular experiments. NAD measurements reflect total NAD^+ plus NADH. Briefly, conditioned medium was extracted with methanol (80% methanol final concentration) spiked with isotopic standards for Nam and β-OHB (CDN Isotopes, Inc.). Precipitated proteins were removed by centrifugation, and supernatants were analyzed directly. For analysis of cell lysates, cells were washed with ice-cold PBS, scraped and lysed on dry ice into methanol containing isotopic standards. After extraction, cell and media supernatants were analyzed by LC-MS/MS using reverse-phase chromatography (NAM and NAD/NADH) or hydrophilic interaction chromatography (β-OHB) coupled to tandem mass spectrometry using an API 5000 triple quadruple mass spectrometer. Analytes were quantified by multiple reaction monitoring using the following m/z transitions: β-OHB 103.1>59, β-OHB IS 105.1>60, NAM 123.3>80.2, NAM IS 127.3>84.2, NAD/NADH 664.2>542.0. Eluting peaks were quantified by area under the curve (AUC).
Mouse intermedullary collecting duct (IMCD3) cells were obtained from ATCC. […] Cells were transfected with siRNA targeting mouse PGC1, HCAR2 or a negative control siRNA (Qiagen) for 24 h. […] Prostaglandin E2 (PGE2) was measured in the conditioned media 24-72 hours after treatment.
For data set [5], the system named is PGC1α^−/− mice. Description: Renal ischemia-reperfusion injury (IRI) in PGC1α−/− mice with Nam pretreatment. Format: in vivo, mouse. On the procedure: as §1, §2, §3
For metabolomics measurements, snap frozen kidneys were cut to equal weights (20 mg/specimen) and mechanically homogenized into 4 volumes of ice-cold water. […] In brief, amino acids, amines, acylcarnitines, nucleotides, and other cationic polar metabolites were measured in 10 μl of kidney homogenate using hydrophilic interaction liquid chromatography coupled with nontargeted, positive ion mode MS analysis on an Exactive Plus Orbitrap MS (Thermo Scientific). Polar and non-polar lipids were measured in 10 μl of kidney homogenate using C8 chromatography and nontargeted, positive ion mode MS analysis on a Q Exactive MS (Thermo Scientific). […] Results were analyzed in MetaboAnalyst (Xia et al., Nucleic Acids Res. 40 (Web Server issue): W127-33 (2012)). […]

Data set [6] deals with mice. Description: Renal NAD and β-OHB after exogenous Nam in mice. Format: in vivo, mouse. The procedure: All chemicals were purchased from Sigma-Aldrich unless otherwise noted. Niacinamide was given by intraperitoneal injection of 400 mg/kg/day×4 days in saline, with the final dose an hour prior to IRI surgery. In rescue experiments, the same dose was administered once 18 hours after reperfusion. Indomethacin was given by intraperitoneal injection of 10 mg/kg in 0.1 M sodium carbonate/saline an hour prior to IRI. […] In brief, amino acids, amines, acylcarnitines, nucleotides, and other cationic polar metabolites were measured in 10 μl of kidney homogenate using hydrophilic interaction liquid chromatography coupled with nontargeted, positive ion mode MS analysis on an Exactive Plus Orbitrap MS (Thermo Scientific). Polar and non-polar lipids were measured in 10 μl of kidney homogenate using C8 chromatography and nontargeted, positive ion mode MS analysis on a Q Exactive MS (Thermo Scientific). […] Results were analyzed in MetaboAnalyst (Xia et al., Nucleic Acids Res. 40 (Web Server issue): […]-33 (2012)). PGE2 was measured in mouse kidney tissue by ELISA (Cayman Chemical). β-OHB (Cayman Chemical) and total NAD (BioVision) was measured in mouse kidney tissue by colorimetric assays. […]

The test system of data set [7] is mice with established AKI. Description: Nam rescue of established ischemic AKI (single dose 18 h after reperfusion). Conditions: Nam 400 mg/kg IP x 1, 18 h after onset of reperfusion. Format: in vivo, mouse. The procedure: as §1, §2, §3
For data set [8], the system named is mice. The data set is described as follows: Cisplatin nephrotoxicity model. Format: in vivo, mouse. Conditions: cisplatin 25 mg/kg IP day 0; Nam 400 mg/kg IP on day −1 and day 0. From the text: All chemicals were purchased from Sigma-Aldrich unless otherwise noted.
Data set [9] concerns healthy 8-12 wk old male mice. Description: Renal blood flow by Doppler ultrasound in healthy mice. Conditions: Nam 400 mg/kg intraperitoneal x 1; 4 h after injection vs pre-Nam. The format is in vivo, mouse. From the text: The full method is previously described (Tran et al. J Clin Invest 2011; 121, 4003-4014). Briefly, mice were lightly anesthetized, secured to a heat-controlled stage, and continuously monitored for respiration, ECG, and core temperature. A high frequency, high resolution digital imaging platform with linear array technology and equipped with a high-frequency linear array probe MS550D (22-55 MHz) was used throughout the study (Vevo 2100 Visual Sonics). The flow volume was modeled as a circular cylinder of length equal to the average velocity time integral and diameter measured empirically (n=3 cardiac cycles), then multiplied by the heart rate (bpm), then converted from mm^3/min to ml/min. All measurements and analyses were performed by a single blinded operator (EVK).

Data set [10] deals with explanted hearts. The data set is described as follows: NAD in explanted hearts stored in UW Belzer preservation solution. The note with it: 500 μM, 1 mM or 10 mM Nam in ice-cold UW Belzer solution, 3 hours, vs UW Belzer alone. Set-up: species or system mouse. The procedure: as §4, §5
The subject of data set [11] is PGC1α^−/− animals. The data set is described as follows: Intracardiac lipids after Nam. The format is in vivo, mouse. The note with it: Nam 400 mg/kg IP.
Data set [12] relates to PGC1α KO mice. Description: Cardiac IRI with pressure volume loops in PGC1α KO mice. Format: in vivo, mouse. Conditions: Nam 400 mg/kg IP, one dose before IRI, two after; 2 weeks after 45 min coronary occlusion. On the procedure:
For cardiac IRI surgery, mice were anesthetized, intubated, and placed on a rodent ventilator. After thoracotomy, the left anterior descending artery was identified and ligated with a 7-0 silk suture tied around a specialized 30 gauge catheter. The animal remained under anesthesia and ventilation for 45 minutes of ischemia. Reperfusio was achieved by cutting the suture and re-establishing arterial perfusion. The thoracotomy was then sutured closed and animals recovered with warmed saline injected intraperitoneally.
Pressure volume loops were performed to assess cardiac parameters. Cardiac function was measured in mice using the left ventricle (LV) pressure-volume and echocardiography 2 weeks after cardiac IRI or sham control procedure. After 2% isolfurane inhalant anesthesia, the pressure-volume parameters were measured using a 1.4 French microtip pressure-volume catheter. The catheter was first inserted into the right common carotid artery and then gently advanced into the LV to obtain LV hemodynamic measurements. Data were recorded using a Powerlab system. Beat-by-beat pressure-volume parameters including heart rate, stroke volume, stroke work, and cardiac output were measured and analyzed using Cardiosoft Pro software. […] Two-dimensional guided M-mode images were recorded. […]

Entries after “also recorded” stand apart in the source; their conditions may differ.

Data on six compounds can be found in US11116784B2, “Niacinamide (NAM) in ischemic tissue injury” (Beth Israel Deaconess Medical Center, Inc., priority 2016, dated 2021).

For the compound `CC(O)CC(=O)O` (stereo not drawn) [β-OHB, beta-hydroxybutyrate], in data set [1] (exogenous β-OHB 5 mM, p<0.0001), the “PGE2 secretion in PGC1α-silenced cells” value is recorded as “still able to induce PGE2 secretion”.
Turning to `COc1ccc2c(c1)c(CC(=O)O)c(C)n2C(=O)c1ccc(Cl)cc1` [indomethacin], the “renal protection (serum creatinine 24 h after IRI)” value in [2] was “abolished”.
Take `C[N+]1(C)CCCC(OC(=O)C(O)(c2ccccc2)c2ccccc2)C1` (stereo not shown) [mepenzolate bromide]: the “renal protection (serum creatinine 24 h after IRI)” value in [2] is “abolished”.
On to `OC(CNc1ccccc1)Cn1c2ccc(Br)cc2c2cc(Br)ccc21` (stereo not shown) [P7C3], for which the “NAD levels in explanted kidneys” value in data set [3] is reported as “increased; also recorded: can boost NAD levels”.
`C[n+]1cccc(C(N)=O)c1` [1-Me-Nam, 1-methyl-niacinamide]: the “NAD in IMCD3 cells” value in data set [4] was “dose-dependent induction of NAD”.
On to `NC(=O)c1cccnc1` [Nam, niacinamide], for which the “renal Nam” value in data set [5] (Nam 400 mg/kg IP x 4 d, with and without IRI 24 h before tissue collection, p<0.001) is “increased”. Further, the “post-ischemic fat accumulation (Oil Red O)” value in [5] (Nam pretreatment 400 mg/kg IP x 4 d, 24 h after IRI) is given as “normalized”. Also, the “post-ischemic AKI (serum creatinine)” value in data set [5] (PGC1α−/− mice, Nam 400 mg/kg/day IP x 4 d, last dose 1 h before IRI) is recorded as “completely prevented”. Moreover, the “renal NAD” value in [6] (4 h after a single IP Nam dose (100-400 mg/kg)) is “dose-dependently increased; also recorded: can increase renal NAD levels”. In addition, the “renal β-OHB accumulation relative to normal circulating concentrations” value in data set [6] (Nam 400 mg/kg IP x 4 d, p<0.0001) is recorded as “ten-fold”. Also, in data set [1] (Nam 1 μM for 24 h), the PGE2 secretion entry is “augmented”. Moreover, in [7], the “renal function (serial serum creatinine) in established AKI” value is on record as “significantly improved; also recorded: attenuated; also recorded: rapidly improved”. Further, in [8], the “cisplatin-induced AKI (serial serum creatinine)” value is listed as “prevented”. In addition, in [9], the renal blood flow entry is “improved”. Moreover, the “NAD levels in explanted hearts” value in data set [10] was “increased; also recorded: can boost NAD levels”. In addition, in data set [11], the “intracardiac di- and tri-acylglycerols (DAG, TAG)” value was “decline markedly”; the intracardiac phospholipids entry is “largely unaltered”. For the same compound, in data set [12], the “contraction (dP/dt max)” value is “improved” and the “relaxation (dP/dt min)” value is “improved”.
